The results in this text go back to ChEMBL document CHEMBL2440056, “α-Glucosidase-inhibitory iminosugars from the leaves of Suregada glomerulata” (Bioorg Med Chem, 2013).

Experiment [1] is described as follows: Inhibition of rat intestinal alpha-glucosidase using sucrose as substrate assessed as glucose formation incubated for 10 mins prior to substrate addition measured after 30 mins by glucose oxidase method.
The test system of experiment [2] is Mus musculus. Kind of experiment: Hypoglycemic effect in sucrose-challenged ICR mouse assessed as blood glucose level at 10 mg/kg, po after 120 mins by glucose oxidase method (reference value: 137.8 +/- 14.5 mg/dL). The class given is functional.
Experiment [3] relates to Mus musculus. Kind of experiment: Hypoglycemic effect in starch-challenged ICR mouse assessed as glucose AUC at 10 mg/kg, po by glucose oxidase method (reference value: 430.1 +/- 44.7 mg.hr/dL). The class given is functional, organism-based. Also on record: dose 10 mg/kg.
In experiment [4] the test system is Mus musculus. Put plainly: Hypoglycemic effect in sucrose-challenged ICR mouse assessed as blood glucose level at 10 mg/kg, po after 60 mins by glucose oxidase method (reference value: 183.3 +/- 29.1 mg/dL). The class given is functional.
In experiment [5] the test system is Mus musculus. Put plainly: Hypoglycemic effect in starch-challenged ICR mouse assessed as blood glucose level at 10 mg/kg, po after 120 mins by glucose oxidase method (reference value: 174.2 +/- 22.9 mg/dL). The class given is functional.
Experiment [6] relates to Mus musculus. Put plainly: Hypoglycemic effect in sucrose-challenged ICR mouse assessed as glucose AUC at 10 mg/kg, po by glucose oxidase method (reference value: 323.2 +/- 37.2 mg.hr/dL). The class given is functional, organism-based. Also on record: dose 10 mg/kg.
Experiment [7] concerns Mus musculus. Kind of experiment: Hypoglycemic effect in starch-challenged ICR mouse assessed as blood glucose level at 10 mg/kg, po after 30 mins by glucose oxidase method (reference value: 278.9 +/- 33.5 mg/dL). The class given is functional.
For experiment [8], the system named is Mus musculus. Put plainly: Hypoglycemic effect in starch-challenged ICR mouse assessed as blood glucose level at 10 mg/kg, po after 60 mins by glucose oxidase method (reference value: 243.0 +/- 29.0 mg/dL). The class given is functional.
The subject of experiment [9] is Mus musculus. Put plainly: Hypoglycemic effect in sucrose-challenged ICR mouse assessed as blood glucose level at 10 mg/kg, po after 30 mins by glucose oxidase method (reference value: 187.4 +/- 21.6 mg/dL). The experiment is classed as functional.

Structures are written as SMILES.

In the case of `OC[C@@H]1N[C@H](CO)[C@@H](O)[C@H](O)[C@@H]1O`, the IC50 in [1] was found to be 19.2 µM.
Turning to `C[C@@H]1[C@H](O)[C@@H](O)[C@H](O)[C@@H](CO)N1C`, the IC50 in experiment [1] worked out at 0.72 µM.
`C[C@H]1O[C@H](O[C@H]2[C@H](O)[C@@H](O)[C@@H](O[C@H]3[C@H](O)[C@@H](O)C(O)O[C@@H]3CO)O[C@@H]2CO)[C@H](O)[C@@H](O)[C@@H]1N[C@H]1C=C(CO)[C@@H](O)[C@H](O)[C@H]1O` (stereo partly specified) [ACARBOSE]: the Activity is 111.9 mg/dL in the experiment with Mus musculus [2]; 118.4 mg/dL with Mus musculus [4]; 177.5 mg/dL in the experiment with Mus musculus [5]; 164.8 mg/dL in the experiment with Mus musculus [7]; 187.7 mg/dL in the experiment with Mus musculus [8]; 114.6 mg/dL in the experiment on Mus musculus [9]. For the same molecule, the results for the AUC with Mus musculus [3] and with Mus musculus [6] were 3.34e+06 ng·h/mL and 2.23e+06 ng·h/mL, respectively. Moreover, the IC50 in experiment [1] amounted to 0.54 µM.
As to `C[C@H]1N[C@H](CO)[C@@H](O)[C@H](O)[C@H]1O`, the IC50 in [1] came out at 22.1 µM.
On to `CN1[C@H](CO[C@@H]2O[C@H](CO)[C@@H](O)[C@H](O)[C@H]2O)[C@H](O)[C@@H](O)[C@H](O)[C@H]1CO`, for which the IC50 in experiment [1] was 24.3 µM.
As for `CN1[C@H](CO)[C@@H](O)C[C@@H](O)[C@@H]1CO`, the half-inhibitory concentration (IC50) in experiment [1] amounted to 22.2 µM.
For `OC[C@H]1N[C@H](CO)[C@@H](O)[C@H](O)[C@H]1O`, the Activity in the experiment with Mus musculus [2] came to 136.4 mg/dL; with Mus musculus [4] it was 149.9 mg/dL; in the experiment with Mus musculus [5], 161.2 mg/dL; in the experiment on Mus musculus [7] it was 129.3 mg/dL; in the experiment with Mus musculus [8], 176.4 mg/dL; in the experiment on Mus musculus [9] it was 126 mg/dL. The figures for the AUC in the experiment on Mus musculus [3] and with Mus musculus [6] were 2.99e+06 ng·h/mL and 2.68e+06 ng·h/mL, respectively. In experiment [1], the IC50 turned out to be 0.09 µM.
For `OCCCCCCCC[C@H]1N[C@H](CO)[C@@H](O)[C@H](O)[C@H]1O`, the IC50 in experiment [1] was determined as 5.53 µM.
Consider `CN1[C@H](CO)[C@H](O)[C@@H](O)[C@H](O)[C@H]1CO`, for which the Activity with Mus musculus [2] stood at 115.6 mg/dL; with Mus musculus [4], 114 mg/dL; in the experiment on Mus musculus [5], 141.2 mg/dL; in the experiment with Mus musculus [7], 141 mg/dL; in the experiment with Mus musculus [8], 144.8 mg/dL; in the experiment on Mus musculus [9], 121.4 mg/dL. Moreover, the AUC is 2.72e+06 ng·h/mL with Mus musculus [3] and 2.28e+06 ng·h/mL in the experiment on Mus musculus [6]. Also, the IC50 in experiment [1] worked out at 0.08 µM.
As to `OC[C@@H](O)[C@H]1N[C@H](CO)[C@@H](O)[C@@H]1O`, the Activity with Mus musculus [2] stood at 136.7 mg/dL; in the experiment on Mus musculus [4] it was 147.3 mg/dL; with Mus musculus [5], 150.3 mg/dL; in the experiment on Mus musculus [7] it was 262.8 mg/dL; in the experiment with Mus musculus [8] it was 216.2 mg/dL; in the experiment with Mus musculus [9], 179 mg/dL. The AUC came out at 3.9e+06 ng·h/mL in the experiment with Mus musculus [3] and 2.94e+06 ng·h/mL with Mus musculus [6]. Moreover, the IC50 in experiment [1] worked out at 0.92 µM.
Consider `CN1[C@H](CO)[C@H](O)C[C@H](O)[C@H]1CO`, for which the IC50 in [1] came to 20 µM.
The same measure, in the same setting: with `OC[C@H]1N[C@H](CO[C@H]2O[C@H](CO)[C@@H](O)[C@H](O)[C@H]2O)[C@H](O)[C@@H](O)[C@@H]1O` the figure was 38.6 µM.
For `OC[C@H]1N[C@H](CO[C@@H]2O[C@H](CO)[C@@H](O)[C@H](O)[C@H]2O)[C@H](O)[C@@H](O)[C@@H]1O`, the Activity in the experiment with Mus musculus [2] is 133.3 mg/dL; with Mus musculus [4], 135.1 mg/dL; with Mus musculus [5], 146.8 mg/dL; with Mus musculus [7], 187.1 mg/dL; with Mus musculus [8] it was 204.1 mg/dL; in the experiment with Mus musculus [9], 130.8 mg/dL. In addition, the values for the AUC with Mus musculus [3] and in the experiment with Mus musculus [6] were 3.41e+06 ng·h/mL and 2.58e+06 ng·h/mL, respectively. Also, in [1], the IC50 was determined as 4.22 µM.
Take `CCCCN1[C@H](CO[C@@H]2O[C@H](CO)[C@@H](O)[C@H](O)[C@H]2O)[C@H](O)[C@@H](O)[C@H](O)[C@H]1CO`: in [1], the IC50 came out at 22.9 µM.
Turning to `OC[C@@H]1N[C@H](CO)[C@@H](O)[C@H](O)[C@H]1O`, the IC50 in experiment [1] was determined as 24.3 µM.
Regarding `OC[C@H]1N[C@H](CO)[C@@H](O)[C@@H](O)[C@H]1O`, the IC50 in experiment [1] came to 24.9 µM.

One may read the IC50 as the concentration at which inhibition is half-maximal.
